In patent publication US20020019527A1 (priority 2000, published 2002):
Where a name gives a salt, the structure may show the parent alone.

Legend:
[1] = Cardiovascular liability test
Protocol: Representative compounds of the instant invention were also tested for cardiovascular liability (see Journal of Cardiovascular Pharmacology, 607-618: 37 (2001)).

[2] = biological target: T1, Farnesyltransferase (FTase) (Bos taurus, UniProt P29702+P49355); assay: Farnesyltransferase inhibition (scintillation proximity assay, [3H]-FPP / biotin-K-ras peptide); format: biochemical, bovine; details: compound at 10^−6 M; bovine FTase, 37° C., 30 minutes
T1 construct: precipitation from a beef brain homogenate; from tissue; host or cells: bovine brain
T1 sequence (P49355 whole entry, one chain of several): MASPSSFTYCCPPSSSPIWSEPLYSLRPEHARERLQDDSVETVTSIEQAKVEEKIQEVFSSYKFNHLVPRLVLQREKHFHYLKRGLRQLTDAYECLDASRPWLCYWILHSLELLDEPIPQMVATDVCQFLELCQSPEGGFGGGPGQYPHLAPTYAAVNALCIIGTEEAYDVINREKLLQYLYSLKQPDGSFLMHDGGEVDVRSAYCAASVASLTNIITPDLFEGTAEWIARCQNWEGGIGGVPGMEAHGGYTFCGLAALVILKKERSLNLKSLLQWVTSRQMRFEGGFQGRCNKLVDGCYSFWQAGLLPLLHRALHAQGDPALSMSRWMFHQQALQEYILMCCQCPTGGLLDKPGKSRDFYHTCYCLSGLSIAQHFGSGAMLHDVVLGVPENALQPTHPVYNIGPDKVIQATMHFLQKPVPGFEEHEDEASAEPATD
How it was run: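 Bovine brain FTase, partially purified by 30–50% saturated ammonium sulfate precipitation and DEAE Sepharose chromatography, separated from GGTase I/II. Scintillation proximity read-out of [3H]-FPP transfer to biotin-K-ras peptide, counted 1 h after quench. Compounds added from ethanol with 10-fold dilution into assay.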

Row | SMILES | electrophysiological profile (cardiovascular liability) [1] | inhibition at 1 µM [2] [%]
1 | N#Cc1ccc(COC(c2ccc(C#N)c(-c3cccc4ccccc34)c2)c2cncs2)nc1 (stereo not shown) [Example 291, 6-(((4-cyano-3-(1-naphthyl)phenyl)(1,3-thiazol-5-yl)methoxy)methyl)nicotinonitrile] | improved electrophysiological profile | 
2 | Cc1ccc(-c2cc(C(OCc3ccccc3)c3cncn3C)ccc2C#N)cc1 (stereo not shown) [Example 93, 5-((benzyloxy)(1-methyl-1H-imidazol-5-yl)methyl)-4′-methyl(1,1′-biphenyl)-2-carbonitrile hydrochloride] |  | 58
3 | Cc1ccccc1-c1cc(C(OCc2ccc(-c3ccccc3)cc2)c2cncn2C)ccc1C#N (stereo not shown) [Example 161, 5-(((1,1′-biphenyl)-4-ylmethoxy)(1-methyl-1H-imidazol-5-yl)methyl)-2′-methyl(1,1′-biphenyl)-2-carbonitrile hydrochloride] |  | 96
4 | Cn1cncc1C(SCc1ccc(C#N)cc1)c1ccc(C#N)c(-c2cccc3ccccc23)c1 (stereo not shown) [Example 62, 4-(((4-cyanobenzyl)sulfanyl)(1-methyl-1H-imidazol-5-yl)methyl)-2-(1-naphthyl)benzonitrile hydrochloride] |  | 100
5 | Cn1cncc1C(NC1CCN(C(=O)OCc2ccccc2)CC1)c1ccc(C#N)c(-c2cccc3ccccc23)c1 (stereo not shown) [Example 54, benzyl 4-(((4-cyano-3-(1-naphthyl)phenyl)(1-methyl-1H-imidazol-5-yl)methyl)amino)-1-piperidinecarboxylate dihydrochloride] |  | 100
6 | Cc1ccccc1-c1cc(C(OCc2ccccc2)c2cncs2)ccc1C#N (stereo not shown) [Example 213, 5-((benzyloxy)(1,3-thiazol-5-yl)methyl)-2′-methyl(1,1′-biphenyl)-2-carbonitrile hydrochloride] |  | 41
7 | COc1ccccc1-c1cc(C(OCc2ccccc2)c2cncn2C)ccc1C#N (stereo not shown) [Example 5, 5-((benzyloxy)(1-methyl-1H-imidazol-5-yl)methyl)-2′-methoxy(1,1′-biphenyl)-2-carbonitrile hydrochloride] |  | 91
8 | Cn1cncc1C(OCc1ccc(F)c(C(F)(F)F)c1)c1ccc(C#N)c(-c2cccc3cccnc23)c1 (stereo not shown) [Example 242, 4-(((4-fluoro-3-(trifluoromethyl)benzyl)oxy)(1-methyl-1H-imidazol-5-yl)methyl)-2-(8-quinolinyl)benzonitrile dihydrochloride] |  | 98
9 | CCN(Cc1ccc(C#N)cc1)C(c1ccc(C#N)c(-c2ccccc2C)c1)c1cncn1C (stereo not shown) [Example 28, 5-(((4-cyanobenzyl)(ethyl)amino)(1-methyl-1H-imidazol-5-yl)methyl)-2′-methyl(1,1′-biphenyl)-2-carbonitrile dihydrochloride] |  | 100
10 | Cn1cncc1C(OCc1ccc(OC(F)(F)F)cc1)c1ccc(C#N)c(-c2cccc3ccccc23)c1 (stereo not shown) [Example 67, 4-((1-methyl-1H-imidazol-5-yl)((4-(trifluoromethoxy)benzyl)oxy)methyl)-2-(1-naphthyl)benzonitrile hydrochloride] |  | 100
